Results as given in publication PMC5007466, “VCP recruitment to mitochondria causes mitophagy impairment and neurodegeneration in models of Huntington's disease” (Nature Communications, 2016).

Tests used:
R6/2 mice [1] = experiment: Body weight and survival, R6/2; type: in vivo, mouse; conditions: R6/2, 5–13 weeks of age, 3 mg kg^−1 per day, n=15
Experimental: (§1) Male hemizygous R6/2 mice (Tg) and their age-matched wt littermates (5-week-old) were implanted with a 28-day osmotic pump (Alzet, Cupertino CA) containing TAT control peptide or HV-3 peptide, which delivered peptides to the mice at a rate of 3 mg kg^−1 per day. The first pump was implanted subcutaneously in the back of 5-week-old mice between the shoulders and replaced once, after 4 weeks.
The body weight and survival rate of HD mice and wt littermates were recorded throughout the study period.

[2] = tested on: Cathepsin B in HdhQ111 mouse striatal cells; experiment: Lysosomal Cathepsin B activity; type: cell-based; conditions: 3 uM/day for 3 days
Experimental: Figure 5 Treatment of HV-3 reduces excessive mitophagy in HD cell cultures and HD mouse brains. (a) HdhQ7 and HdhQ111 cells were treated with control siRNA (con) or VCP siRNA (siVCP) for 48 h. Mitochondria were isolated and LC3 mitochondrial levels were determined by WB. Representative blots are from three independent experiments. The quantitation of LC3 II levels on mitochondria is provided on the right. VADC was used as a loading control. (b) Flag-VCP and GFP-LC3B were co-transfected into wild-type striatal cells. Mitochondria were isolated after 36 h of transfection. The GFP-LC3B levels on mitochondria were examined by WB. VDAC was used as a loading control. Representative blots are from three independent experiments. Histogram: quantitation of GFP-LC3B mitochondrial protein level. HdhQ7 and HdhQ111 cells were treated with control peptide TAT or peptide HV-3 (3 uM/day for 3 days). (c) HdhQ111 cells were transfected with GFP-LC3B for 24 h. The number of GFP-LC3B puncta was quantitated and shown in the histogram. Scale bars: 10 μm. (d) Enzyme activity of lysosomal Cathepsin B was measured using a Cathepsin B assay kit. […] (e) Mitochondrial mass was measured by the fluorescent density of Mitotracker green. […] Histogram: the number of mitophagosomes per 100 μm^2 was counted and quantitated. Fifteen random areas in the striatum of each animal were analyzed. […]

R6/2 mice [3] = experiment: Spontaneous locomotion, R6/2; type: in vivo, mouse; conditions: R6/2, 13 weeks of age, 3 mg kg^−1 per day s.c. pump from 5 weeks, n=15
Source text: Male R6/2 mice and their wt littermates (4 weeks old) were purchased from Jackson Laboratories (Bar Harbor, ME; B6CBA-TgN (HD exon 1)62; JAX stock number: 006494). These mice (C57BL/6 and CBA genetic background) are transgenic for the 5′ end of the human HD gene carrying 100–150 glutamine (CAG) repeats.
as §1
Gross locomotor activity was assessed in R6/2 mice and age-matched wt littermates at the ages of 13 weeks and in YAC128 mice and age-matched wt littermates at the ages of 2, 3, 6, 9, and 12 months. In an activity chamber (Omnitech Electronics, Inc), mice were placed in the center of the chamber and allowed to explore while being tracked by an automated beam system (Vertax, Omnitech Electronics Inc). Distance moved, horizontal, vertical, and rearing activities were recorded. Because R6/2 mice were sensitive to changes in environment and handling, we only conducted one-hour locomotor activity analysis for R6/2 mice and wt littermates. […]

For `CSCC[C@H](NC(=O)[C@@H](NC(=O)[C@H](CC(C)C)NC(=O)[C@@H](NC(=O)[C@H](Cc1c[nH]cn1)NC(=O)CCCCCNC(=O)[C@H](CCCNC(=N)N)NC(=O)[C@H](CCCNC(=N)N)NC(=O)[C@H](CCCNC(=N)N)NC(=O)[C@H](CCC(N)=O)NC(=O)[C@H](CCCNC(=N)N)NC(=O)[C@H](CCCNC(=N)N)NC(=O)[C@H](CCCCN)NC(=O)[C@H](CCCCN)NC(=O)[C@H](CCCNC(=N)N)NC(=O)CNC(=O)[C@@H](N)Cc1ccc(O)cc1)C(C)C)C(C)C)C(=O)N[C@@H](CS)C(=O)N[C@@H](C)C(=O)N[C@H](C(N)=O)[C@@H](C)O` [HV-3], the body weight (R6/2 mice [1]) was “increased body weight”, the survival rate (R6/2 mice [1]) was “increased body weight and survival rate” and the “Cathepsin B activity” value [2] was “reduced by treatment with HV-3”. For the same molecule, the “spontaneous locomotion (total distance, horizontal and vertical activities)” value (R6/2 mice [3]) was “markedly corrected these motor deficits”.
